Data on one compound can be found in patent US12370170B2, “Composition comprising naphthoquinone-based compound as active ingredient, for preventing or ameliorating fatigue, cachexia, pain, cognitive decline and hematopoietic stem cell reduction which are side effects related to anticancer drug treatment” (NADIANBIO LTD., priority 2016, dated 2025).

Format in all cases: in vivo, C57BL/6 mice
Test [1] has as its system inflammatory cytokines TNF-α, IL-1β, IL-6 and IL-17. The test is described as follows: Plasma inflammatory cytokines by ELISA in adriamycin animal model. Conditions: adriamycin 4 mg/kg/day i.p. ×3; compound 20 mg/kg oral daily from 3 days before; 4 days after final adriamycin; vs adriamycin group. The protocol:
(§1) In this invention, 11 weeks old C57BL/6 mice were used. All the mice used in the experiments of the invention were raised in an aseptic animal room at the temperature of 22˜26 L with the humidity of 55˜60%. The mice were allowed to take general solid feed (SAMTACO Co., Ltd., Korea) and water freely. The mice were adapted for 1 week before the experiment. All the experiments were performed after obtaining approval from the clinical trial management committee in accordance with the laboratory animal care and ethics regulations of Wonkwang University. The mouse animal model of the present invention was treated with different anticancer drugs. […]
Particularly, plasma was isolated from the adriamycin animal model prepared by the same manner as described in Example 4, and the inflammatory cytokines TNF-α (R&D Systems, MTA00B), IL-1β (R&D Systems, MLB00C), IL-6 (R&D Systems, M6000B) and IL-17 (R&D Systems, M1700) were analyzed by ELISA (enzyme-linked immunosorbent assay).
To investigate the regulatory effect of β-lapachone on adriamycin induced inflammatory cytokines, plasma was isolated from the adriamycin animal model prepared by the same manner as described in Example 4, and the inflammatory cytokines TNF-α, IL-1β, IL-6 and IL-17 were analyzed by ELISA.
In general terms: In an ELISA, binding on a coated surface is turned into a signal by an enzyme label.

A further test deals with orexin. The test is described as follows: Orexin protein in hypothalamus by ELISA, 4×ACP animal model. Conditions: β-lapachone 20 mg/kg oral daily from 3 days before, 2 days after ACP. The protocol:
as §1, with “drugs. Particularly, one kind of anticancer drug was administered intraperitoneally one time or more, or several kinds of anticancer drugs were administered once or more times or at different concentrations, leading to the establishment of the animal model of the invention.” for “drugs.”
To analyze orexin protein in the 4×ACP animal model prepared by the same manner as described in Example 8, the hypothalamus of the mouse was extracted, followed by the preparation of a homogenate. Orexin (MyBioSource, MBS2505504) was analyzed by ELISA to investigate the regulatory effect of β-lapachone on orexin.

Test [2] deals with inflammatory cytokines TNF-α and IL-1β. The experiment in a line: Brain inflammatory response: TNF-α and IL-1β in hypothalamus (RT-PCR, ELISA), 4×ACP animal model. As to conditions: β-lapachone 20 mg/kg oral, ELISA of homogenate. On the procedure:
In this invention, 11 weeks old C57BL/6 mice were used. All the mice used in the experiments of the invention were raised in an aseptic animal room at the temperature of 22˜26 L with the humidity of 55˜60%. The mice were allowed to take general solid feed (SAMTACO Co., Ltd., Korea) and water freely. The mice were adapted for 1 week before the experiment. All the experiments were performed after obtaining approval from the clinical trial management committee in accordance with the laboratory animal care and ethics regulations of Wonkwang University. The mouse animal model of the present invention was treated with different anticancer drugs. Particularly, one kind of anticancer drug was administered intraperitoneally one time or more, or several kinds of anticancer drugs were administered once or more times or at different concentrations, leading to the establishment of the animal model of the invention. In the adriamycin-induced animal model, the mice were divided into 6 groups as follows: the control group administered with PBS (Control, 5 mice), the group administered intraperitoneally with adriamycin (4 mg/kg/day) 3 times (ADR, 5 mice), the group administered orally with dunnione or β-lapachone from 3 days before the adriamycin treatment daily (20 mg/kg, 5 mice), and the group administered with dunnione or β-lapachone (20 mg/kg, 5 mice). 4 days after the final adriamycin treatment, analysis of the mice was performed.
The present inventors established an animal model co-treated with three different anticancer drugs in this experiment. The anticancer drugs used herein were adriamycin (ADR), cyclophosphamide (CYP) and paclitaxel (PTX), which were indicated as ACP. […]
A homogenate was prepared with the mouse hypothalamus extracted from the 4×ACP animal model prepared by the same manner as described in Example 8. Then, the expressions of the inflammatory cytokines TNF-α and IL-1β in the brain tissue were analyzed by ELISA.

For the compound `CC1(C)CCC2=C(O1)c1ccccc1C(=O)C2=O` [β-lapachone, 3,4-Dihydro-2,2-dimethyl-2H-naphtho(1,2-b) pyran-5,6-dione], the “level of inflammatory cytokines (TNF-α, IL-1β, IL-6, IL-17) in plasma” value in test [1] was “significantly reduced”. Besides, the “orexin reduction in the hypothalamus” value with orexin is given as “significantly restored”. In addition, the “up-regulations of TNF-α and IL-1β in the hypothalamus” value in test [2] is “significantly suppressed”.
